Laboratory results from PMC9516332 (Frontiers in Oncology, 2022).
Like-named read-outs stand apart in the source and are kept apart here.

Test system: 134 cancer cell lines
Assay: Cell viability assay (ATPlite, 72 hours), IC50 on cancer cell line panel

SMILES: CN1CCN(c2ccc(C(=O)Nc3n[nH]c4ccc(Cc5cc(F)cc(F)c5)cc34)c(NC3CCOCC3)c2)CC1 [entrectinib]
- IC50 (Homo sapiens, MOLT-4, read-out: IC50 in cell proliferation assay, MOLT-4 cell line): 11.3 µM
- IC50 (Homo sapiens, MV4-11, read-out: IC50 in cell proliferation assay, MV4-11 cell line (FLT3 ITD)): 0.281 µM
- IC50 (Homo sapiens, MeWo, read-out: IC50 in cell proliferation assay, MeWo cell line): 10.1 µM
- IC50 (Homo sapiens, NCCIT, read-out: IC50 in cell proliferation assay, NCC-IT cell line): 6.38 µM
- IC50 (Homo sapiens, NCI-H82, read-out: IC50 in cell proliferation assay, cell line NCI-H82): 9.7 µM
- IC50 (Homo sapiens, NCI-H460, read-out: IC50 in cell proliferation assay, NCI-H460 cell line): 9.99 µM
- IC50 (Homo sapiens, NCI-H661, read-out: IC50 in cell proliferation assay, NCI-H661 cell line): 4.03 µM
- IC50 (Homo sapiens, NCI-H716, read-out: IC50 in cell proliferation assay, cell line NCI-H716 (FGFR2-COL14A1)): 1.46 µM
- IC50 (Homo sapiens, NCI-H1650, read-out: IC50 in cell proliferation assay, NCI-H1650 cell line (EGFR exon19del)): 2.44 µM
- IC50 (Homo sapiens, NCI-H1975, read-out: IC50 in cell proliferation assay, NCI-H1975 cell line (EGFR p.L858R + p.T790M)): 4.15 µM
- IC50 (Homo sapiens, NCI-H2228, read-out: IC50 in cell proliferation assay, NCI-H2228 cell line (EML4-ALK)): 0.196 µM
- IC50 (Homo sapiens, OVCAR-3, read-out: IC50 in cell proliferation assay, cell line OVCAR-3): 8.35 µM
- IC50 (Homo sapiens, PFSK-1, read-out: IC50 in cell proliferation assay, cell line PFSK-1): 7.82 µM
- IC50 (Homo sapiens, RL95-2, read-out: IC50 in cell proliferation assay, cell line RL95-2 (EGFR p.A289V)): 3.32 µM
- IC50 (Homo sapiens, RPMI-7951, read-out: IC50 in cell proliferation assay, cell line RPMI-7951 (BRAF p.V600E)): 4.02 µM
- IC50 (Homo sapiens, RS4-11, read-out: IC50 in cell proliferation assay, cell line RS4;11): 8.24 µM
- IC50 (Homo sapiens, Rec1, read-out: IC50 in cell proliferation assay, cell line REC-1): 5.02 µM
- IC50 (Homo sapiens, SHP77, read-out: IC50 in cell proliferation assay, cell line SHP-77): 12.7 µM
- IC50 (Homo sapiens, SK-BR-3, read-out: IC50 in cell proliferation assay, cell line SK-BR-3 (ERBB2 amplification)): 11.1 µM
- IC50 (Homo sapiens, SK-N-AS, read-out: IC50 in cell proliferation assay, cell line SK-N-AS): 5.34 µM
- IC50 (Homo sapiens, SK-N-FI, read-out: IC50 in cell proliferation assay, cell line SK-N-FI): 4.06 µM
- IC50 (Homo sapiens, SK-N-MC, read-out: IC50 in cell proliferation assay, cell line SK-N-MC): 4.62 µM
- IC50 (Homo sapiens, SK-N-SH, read-out: IC50 in cell proliferation assay, cell line SK-N-SH (ALK p.F1174L)): 2.8 µM
- IC50 (Homo sapiens, SNU-5, read-out: IC50 in cell proliferation assay, cell line SNU-5 (MET amplification)): 9.58 µM
- IC50 (Homo sapiens, SNU-16, read-out: IC50 in cell proliferation assay, cell line SNU-16 (FGFR2 amplification)): 2.13 µM
- IC50 (Homo sapiens, SNU-C2B, read-out: IC50 in cell proliferation assay, cell line SNU-C2B (EGFR p.R165Q)): 8.12 µM
- IC50 (Homo sapiens, SU-DHL-1, read-out: IC50 in cell proliferation assay, cell line SU-DHL-1 (NPM1-ALK)): 0.607 µM
- IC50 (Homo sapiens, SU-DHL-6, read-out: IC50 in cell proliferation assay, cell line SU-DHL-6): 7.74 µM
- IC50 (Homo sapiens, SUP-T1, read-out: IC50 in cell proliferation assay, cell line SUP-T1): 11 µM
- IC50 (Homo sapiens, SW48, read-out: IC50 in cell proliferation assay, cell line SW48 (EGFR p.G719S)): 5.31 µM
- IC50 (Homo sapiens, SW480, read-out: IC50 in cell proliferation assay, cell line SW480): 6.93 µM
- IC50 (Homo sapiens, SW626, read-out: IC50 in cell proliferation assay, cell line SW626): 7.38 µM
- IC50 (Homo sapiens, SW780, read-out: IC50 in cell proliferation assay, cell line SW780 (FGFR3-BAIAP2L1)): 2.85 µM
- IC50 (Homo sapiens, SW837, read-out: IC50 in cell proliferation assay, cell line SW837): 8.38 µM
- IC50 (Homo sapiens, SW872, read-out: IC50 in cell proliferation assay, cell line SW872 (BRAF p.V600E)): 6.09 µM
- IC50 (Homo sapiens, SW900, read-out: IC50 in cell proliferation assay, cell line SW900): 6.64 µM
- IC50 (Homo sapiens, SW948, read-out: IC50 in cell proliferation assay, cell line SW948): 9.44 µM
- IC50 (Homo sapiens, SW982, read-out: IC50 in cell proliferation assay, cell line SW982 (BRAF p.V600E)): 5.31 µM
- IC50 (Homo sapiens, SW-620, read-out: IC50 in cell proliferation assay, cell line SW620): 6.33 µM
- IC50 (Homo sapiens, T98G, read-out: IC50 in cell proliferation assay, cell line T98G): 5.59 µM
- IC50 (Homo sapiens, TCC-SUP, read-out: IC50 in cell proliferation assay, cell line TCCSUP): 6.42 µM
- IC50 (Homo sapiens, THP-1, read-out: IC50 in cell proliferation assay, cell line THP-1): 12.9 µM
- IC50 (Homo sapiens, U2OS, read-out: IC50 in cell proliferation assay, cell line U2OS): 4.45 µM
- IC50 (Homo sapiens, U-87 MG, read-out: IC50 in cell proliferation assay, cell line U-87MG ATCC): 7.08 µM
- IC50 (Homo sapiens, U-118-MG, read-out: IC50 in cell proliferation assay, cell line U-118MG): 6.88 µM
- IC50 (Homo sapiens, UMUC3, read-out: IC50 in cell proliferation assay, cell line UM-UC-3): 6.87 µM
- IC50 (Hs766T, read-out: IC50 in cell proliferation assay, Hs 766T cell line): 7.08 µM
- IC50 (L-82, read-out: IC50 in cell proliferation assay, L-82 cell line (NPM1-ALK)): 0.125 µM
- IC50 (Rh30, read-out: IC50 in cell proliferation assay, cell line Rh30): 4.64 µM
- IC50 (read-out: IC50 in cell proliferation assay, 11-18 cell line (EGFR p.L858R)): 4.17 µM
- IC50 (read-out: IC50 in cell proliferation assay, Hs 852.T cell line): 4.09 µM
- IC50 (read-out: IC50 in cell proliferation assay, JAR cell line): 5.04 µM
- IC50 (read-out: IC50 in cell proliferation assay, cell line 5637): 5.56 µM
- IC50 (read-out: IC50 in cell proliferation assay, cell line A-388): 10.3 µM
- IC50 (read-out: IC50 in cell proliferation assay, cell line DB): 10.5 µM
- IC50 (read-out: IC50 in cell proliferation assay, cell line DEL (NPM1-ALK)): 0.216 µM
- IC50 (read-out: IC50 in cell proliferation assay, cell line ES-2 (BRAF p.V600E)): 4.86 µM
- IC50 (read-out: IC50 in cell proliferation assay, cell line PA-1): 3.03 µM
- IC50 (read-out: IC50 in cell proliferation assay, cell line PC-3): 11 µM
- IC50 (read-out: IC50 in cell proliferation assay, cell line RD): 5.09 µM
- IC50 (read-out: IC50 in cell proliferation assay, cell line RKO (BRAF p.V600E)): 4.68 µM
- IC50 (read-out: IC50 in cell proliferation assay, cell line RL): 10.9 µM
- IC50 (read-out: IC50 in cell proliferation assay, cell line RT-4 (FGFR3-TACC3)): 2.94 µM
- IC50 (read-out: IC50 in cell proliferation assay, cell line SR (NPM1-ALK)): 0.72 µM
- IC50 (read-out: IC50 in cell proliferation assay, cell line T24): 7.12 µM
- IC50 (read-out: IC50 in cell proliferation assay, cell line TT (RET p.C634W)): 9.26 µM
- IC50 (read-out: IC50 in cell proliferation assay, cell line VA-ES-BJ): 6.41 µM
